System: CMs

SMILES: CC(C)C[C@H](NC(=O)[C@H](Cc1ccccc1)NC(=O)c1cnccn1)B(O)O [bortezomib]
- fragmentation frequency and severity compared with SARS-CoV-2 (human): much more infrequently and less severely than SARS-CoV-2
- induction of myofibril fragmentations in CMs (no virus, bortezomib only at high doses (1 uM and 10 uM tested), doxorubicin 20 nM and 200 nM (Table 1A)): induced myofibril fragmentations

Source: US20240295544A1 (priority 2020, published 2024)
